Source: patent US6608032B1, “Medicinal compositions” (Takara Shuzo Co., Ltd., priority 1999, dated 2003)

Tests used:
α-glucosidase [1] = target: α-glucosidase (Rattus norvegicus, UniProt P23739); test: α-glucosidase inhibition, crude enzyme preparation from rat small intestine mucous membrane; type: biochemical
Description: (§1) (2) A crude enzyme preparation obtained from rat small intestine mucous membrane prepared according to the method as described in Arne Dahlqvist, Anal. Biochem., 7:18-25 (1964) was used to measure the activity of inhibiting α-glucosidase of agarotetraose or agarohexaose prepared in Referential Example 1 in vitro as follows.
(§2) For the enzymatic reaction, 80 μl of a solution of sucrose, maltose, treharose or soluble starch as a substrate in 10 mM phosphate buffer (pH 7.0) at a final concentration of 100 mM (0.5% in case of soluble starch) was added to 10 μl of a test sample solution appropriately diluted with the same buffer. 10 μl of the crude enzyme solution prepared from rat small intestine was added thereto. The mixture was reacted at 37° C. for 20 minutes. The enzymatic activity was determined as follows as the amount of glucose generated in the reaction mixture: 3 ml of a reagent for glucose measurement (Wako Pure Chemical Industries) was added to the reaction mixture, reaction was carried out at 37° C. for 5 minutes, and then the absorbance at 505 nm was measured. The inhibitory activity on the digestion of each substrate was expressed as a remaining activity (%) against the control, which was calculated based on the activity measured as described above for each of four different concentrations. The remaining activities (%) on the respective substrates in the presence of agarotetraose are shown in Table 2, whereas the remaining activities (%) on the respective substrates in the presence of agarohexaose are shown in Table 3.

α-glucosidase [2] = test: as above; type: biochemical
Description: as §1, §2

human IL-10 = test: IL-10 production from DSEK cells (ELISA); type: cell-based; conditions: DSEK culture supernatant
Description: (§3) 150 μl of a culture supernatant was collected from a well containing a culture of DSEK cells over time at intervals of 24 hours. The effects of agarobiose on the production (expression) of cytokines (human TGF-β, human FGF-β and human IL-10) from the cell were determined using ELISA kits specific for the respective cytokines (from Intergen for human FGF-β and human IL-10; and from Promega for human TGF-β).

human FGF-β = test: FGF-β production from DSEK cells (ELISA); type: cell-based; conditions: DSEK culture supernatant
Description: as §3

human TGF-β = test: TGF-β production from DSEK cells (ELISA); type: cell-based; conditions: DSEK culture supernatant
Description: as §3

cyclooxygenase 2 protein = test: LPS-induced cyclooxygenase 2 protein expression in RAW264.7 cells (Western blot); type: cell-based; conditions: 50 μl of 10 mM solution per 5 ml, added 0 or 6 hours before LPS
Description: (1) RAW264.7 cells (ATCC TIB 71) were suspended in Dulbecco's modified Eagle's medium (Bio Whittaker, 12-604F) containing 10% fetal calf serum (Gibco) at a concentration of 3×10^5 cells/ml. 5 ml of the suspension was added to each well of a 6-well microtiter plate and the plate was incubated at 37° C. overnight in the presence of 5% CO2. 50 μl of a solution containing agarobiose or agarohexaose at a concentration of 10 mM in water was added to the well. The plate was incubated for 0 or 6 hours. 50 μl of a solution containing lipopolysaccharide (LPS, Sigma, L-2012) at a concentration of 100 μg/ml in water was added to the well. The plate was incubated for additional 12 hours. The cells were recovered by detaching the cells from the plate using a scraper and suspended in phosphate buffered saline containing 1 μg/ml pepstatin A (Sigma, P5318), 1 μg/ml leupeptin (Sigma, L2884), 1 mM phenylmethylsulfonyl fluoride (Nacalai Tesque, 273-27), 10 mM ethylenediaminetetraacetic acid disodium salt and 0.1% Triton X-100. A supernatant obtained by centrifuging the suspension after freezing and thawing was used as a protein fraction. The content of protein in the protein fraction was determined using Micro BCA Protein Assay Reagent (a product of Pierce sold by Takara Shuzo, P7411). […]

[3] = substrate Soluble starch, 0.2 mM
[4] = substrate Soluble starch, 0.5 mM
[5] = substrate Soluble starch, 1.0 mM
[6] = substrate Soluble starch, 2.0 mM

α-glucosidase (Rattus norvegicus, UniProt P23739), sequence (P23739 whole entry): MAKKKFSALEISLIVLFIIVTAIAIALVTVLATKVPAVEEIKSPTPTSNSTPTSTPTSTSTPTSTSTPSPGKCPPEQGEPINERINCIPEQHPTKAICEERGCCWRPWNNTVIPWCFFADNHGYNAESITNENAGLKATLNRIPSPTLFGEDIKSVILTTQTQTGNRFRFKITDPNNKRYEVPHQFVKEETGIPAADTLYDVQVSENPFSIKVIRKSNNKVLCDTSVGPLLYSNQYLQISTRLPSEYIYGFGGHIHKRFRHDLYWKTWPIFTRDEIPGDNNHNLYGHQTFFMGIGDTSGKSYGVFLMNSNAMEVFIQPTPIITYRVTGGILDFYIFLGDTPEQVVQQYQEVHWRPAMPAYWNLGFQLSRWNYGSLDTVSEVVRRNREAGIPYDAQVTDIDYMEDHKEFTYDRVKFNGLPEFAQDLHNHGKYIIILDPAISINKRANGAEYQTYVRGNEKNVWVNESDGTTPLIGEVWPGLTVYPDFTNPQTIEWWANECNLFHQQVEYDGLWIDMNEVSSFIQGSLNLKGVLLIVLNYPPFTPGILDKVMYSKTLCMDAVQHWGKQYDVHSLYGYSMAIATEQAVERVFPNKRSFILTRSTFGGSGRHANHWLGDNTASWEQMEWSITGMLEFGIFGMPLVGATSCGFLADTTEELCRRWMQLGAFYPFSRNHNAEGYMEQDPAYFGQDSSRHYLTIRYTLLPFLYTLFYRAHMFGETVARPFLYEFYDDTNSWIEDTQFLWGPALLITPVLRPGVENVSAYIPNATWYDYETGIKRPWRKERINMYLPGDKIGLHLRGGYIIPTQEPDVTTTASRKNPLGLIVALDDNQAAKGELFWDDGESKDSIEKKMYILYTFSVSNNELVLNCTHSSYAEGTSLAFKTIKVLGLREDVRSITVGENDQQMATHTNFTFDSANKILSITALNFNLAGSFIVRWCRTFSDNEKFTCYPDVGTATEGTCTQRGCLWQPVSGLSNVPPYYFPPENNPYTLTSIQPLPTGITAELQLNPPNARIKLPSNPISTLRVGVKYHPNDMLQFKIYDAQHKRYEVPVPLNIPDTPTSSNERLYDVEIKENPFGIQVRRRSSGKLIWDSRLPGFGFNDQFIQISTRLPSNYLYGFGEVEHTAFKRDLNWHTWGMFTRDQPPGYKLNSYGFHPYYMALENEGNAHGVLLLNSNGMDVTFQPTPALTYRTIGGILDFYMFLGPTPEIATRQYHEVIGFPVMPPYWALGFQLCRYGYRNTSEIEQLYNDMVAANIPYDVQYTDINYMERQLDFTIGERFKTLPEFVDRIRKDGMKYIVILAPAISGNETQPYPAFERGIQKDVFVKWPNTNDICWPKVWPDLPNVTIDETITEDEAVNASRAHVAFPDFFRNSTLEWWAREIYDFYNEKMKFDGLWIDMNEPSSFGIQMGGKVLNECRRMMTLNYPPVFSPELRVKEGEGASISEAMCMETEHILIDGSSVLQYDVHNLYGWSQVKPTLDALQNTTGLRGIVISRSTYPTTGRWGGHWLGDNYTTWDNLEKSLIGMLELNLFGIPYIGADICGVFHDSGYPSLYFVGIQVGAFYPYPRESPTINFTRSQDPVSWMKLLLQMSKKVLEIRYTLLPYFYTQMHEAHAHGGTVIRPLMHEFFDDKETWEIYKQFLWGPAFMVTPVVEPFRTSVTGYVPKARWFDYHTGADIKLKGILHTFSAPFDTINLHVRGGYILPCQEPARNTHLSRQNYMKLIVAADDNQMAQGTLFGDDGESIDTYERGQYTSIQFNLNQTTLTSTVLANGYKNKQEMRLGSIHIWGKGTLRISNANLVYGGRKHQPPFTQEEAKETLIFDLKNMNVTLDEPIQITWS

Work on OCC1OC(OC2C3COC2C(O)C(OC2C(O)C(CO)OC(OC4C5COC4C(O)C(O)O5)C2O)O3)C(O)C(O)C1O (stereo not shown) [Agarotetraose, agarotetraose] yielded a remaining activity at 200 µM (α-glucosidase [1]) of 92%, a remaining activity at 500 µM (α-glucosidase [1]) of 85% and a remaining activity at 1000 µM (α-glucosidase [1]) of 83%. For the same compound, the remaining activity at 2000 µM (α-glucosidase [1]) was 72%, the “Remaining activity (%)” value (α-glucosidase [2]; substrate Maltose, 0.2 mM) was 97% and the “Remaining activity (%)” value (α-glucosidase [2]; substrate Maltose, 0.5 mM) was 95%. For the same compound, the “Remaining activity (%)” value (α-glucosidase [2]; substrate Maltose, 1.0 mM) was 100%, the “Remaining activity (%)” value (α-glucosidase [2]; substrate Maltose, 2.0 mM) was 98% and the “Remaining activity (%)” value (α-glucosidase [2]; [3]) was 100%. The “Remaining activity (%)” value (α-glucosidase [2]; [4]) was 96%, the “Remaining activity (%)” value (α-glucosidase [2]; [5]) was 97% and the “Remaining activity (%)” value (α-glucosidase [2]; [6]) was 91%. For the same compound, the “Remaining activity (%)” value (α-glucosidase [2]; substrate Trehalose, 0.2 mM) was 100%, the “Remaining activity (%)” value (α-glucosidase [2]; substrate Trehalose, 0.5 mM) was 100% and the “Remaining activity (%)” value (α-glucosidase [2]; substrate Trehalose, 1.0 mM) was 100%. For the same compound, the “Remaining activity (%)” value (α-glucosidase [2]; substrate Trehalose, 2.0 mM) was 93%.
With OC[C@H]1O[C@@H](O[C@H]2[C@H]3OC[C@@H]2OC(O)[C@H]3O)[C@H](O)[C@@H](O)[C@H]1O (mixture of isomers) [Agarobiose, agarobiose] the “production of human IL-10” value (human IL-10) was “activities of inhibiting the production”, the “production of human FGF-β” value (human FGF-β) was “activities of inhibiting the production” and the “production of human TGF-β” value (human TGF-β) was “activities of inhibiting the production”. For the same compound, the “increase in cyclooxygenase 2 protein expression induced by LPS” value (cyclooxygenase 2 protein) was “not suppressed”.
Compound OCC1OC(OC2C3COC2C(O)C(OC2C(O)C(CO)OC(OC4C5COC4C(O)C(OC4C(O)C(CO)OC(OC6C7COC6C(O)C(O)O7)C4O)O5)C2O)O3)C(O)C(O)C1O (stereo not shown) [Agarohexaose, agarohexaose] has a remaining activity at 200 µM (α-glucosidase [1]) of 92%, a remaining activity at 500 µM (α-glucosidase [1]) of 85% and a remaining activity at 1000 µM (α-glucosidase [1]) of 81%. For the same compound, the remaining activity at 2000 µM (α-glucosidase [1]) was 70%, the “Remaining activity (%)” value (α-glucosidase [2]; substrate Maltose, 0.2 mM) was 98% and the “Remaining activity (%)” value (α-glucosidase [2]; substrate Maltose, 0.5 mM) was 100%. For the same compound, the “Remaining activity (%)” value (α-glucosidase [2]; substrate Maltose, 1.0 mM) was 91%, the “Remaining activity (%)” value (α-glucosidase [2]; substrate Maltose, 2.0 mM) was 92% and the “Remaining activity (%)” value (α-glucosidase [2]; [3]) was 100%. The “Remaining activity (%)” value (α-glucosidase [2]; [4]) was 97%, the “Remaining activity (%)” value (α-glucosidase [2]; [5]) was 96% and the “Remaining activity (%)” value (α-glucosidase [2]; [6]) was 97%. The “Remaining activity (%)” value (α-glucosidase [2]; substrate Trehalose, 0.2 mM) was 100%, the “Remaining activity (%)” value (α-glucosidase [2]; substrate Trehalose, 0.5 mM) was 100% and the “Remaining activity (%)” value (α-glucosidase [2]; substrate Trehalose, 1.0 mM) was 100%. For the same compound, the “Remaining activity (%)” value (α-glucosidase [2]; substrate Trehalose, 2.0 mM) was 93% and the “increase in cyclooxygenase 2 protein expression induced by LPS” value (cyclooxygenase 2 protein) was “not suppressed”.
